# Test results published in patent US9296757B2, “Substituted benzothienopyrimidines” (BAYER PHARMA AKTIENGESELLSCHAFT, priority 2012, dated 2016).
# Target: human full-length MKNK1 (Homo sapiens (Human), UniProt Q9BUB5, T344D)
# Assay: MKNK1 kinase high ATP assay (TR-FRET)
# Assay type: biochemical
# Settings: high ATP (2 mM final), 15 min preincubation with enzyme
# Experimental: MKNK1-inhibitory activity at high ATP of compounds of the present invention after their preincubation with MKNK1 was quantified employing the TR-FRET-based MKNK1 high ATP assay as described in the following paragraphs.
# A recombinant fusion protein of Glutathione-S-Transferase (GST, N-terminally) and human full-length MKNK1 (amino acids 1-424 and T344D of accession number BAA 19885.1), expressed in insect cells using baculovirus expression system and purified via glutathione sepharose affinity chromatography, was purchased from Carna Biosciences (product no 02-145) and used as enzyme. As substrate for the kinase reaction the biotinylated peptide biotin-Ahx-IKKRKLTRRKSLKG (C-terminus in amide form) was used, which can be purchased e.g. from the company Biosyntan (Berlin-Buch, Germany).
# For the assay 50 nL of a 100 fold concentrated solution of the test compound in DMSO was pipetted into a black low volume 384 well microtiter plate (Greiner Bio-One, Frickenhausen, Germany), 2 μL of a solution of MKNK1 in aqueous assay buffer [50 mM HEPES pH 7.5, 5 mM MgCl2, 1.0 mM dithiothreitol, 0.005% (v/v) Nonidet-P40 (Sigma)] was added and the mixture was incubated for 15 min at 22° C. to allow pre-binding of the test compounds to the enzyme before the start of the kinase reaction. Then the kinase reaction was started by the addition of 3 μL of a solution of adenosine-tri-phosphate (ATP, 3.3 mM=>final conc. in the 5 μL assay volume is 2 mM) and substrate (0.1 μM=>final conc. in the 5 μL assay volume is 0.06 μM) in assay buffer and the resulting mixture was incubated for a reaction time of 30 min at 22° C. The concentration of MKNK1 was adjusted depending of the activity of the enzyme lot and was chosen appropriate to have the assay in the linear range, typical concentrations were in the range of 0.003 μg/mL. The reaction was stopped by the addition of 5 μL of a solution of TR-FRET detection reagents (5 nM streptavidine-XL665 [Cisbio Bioassays, Codolet, France] and 1 nM anti-ribosomal protein S6 (pSer236)-antibody from Invitrogen [#44921G] and 1 nM LANCE EU-W1024 labeled ProteinG [Perkin-Elmer, product no. AD0071]) in an aqueous EDTA-solution (100 mM EDTA, 0.1% (w/v) bovine serum albumin in 50 mM HEPES pH 7.5).
# The resulting mixture was incubated for 1 h at 22° C. to allow the formation of complex between the phosphorylated biotinylated peptide and the detection reagents. Subsequently the amount of phosphorylated substrate was evaluated by measurement of the resonance energy transfer from the Eu-chelate to the streptavidine-XL. Therefore, the fluorescence emissions at 620 nm and 665 nm after excitation at 350 nm were measured in a TR-FRET reader, e.g. a Rubystar (BMG Labtechnologies, Offenburg, Germany) or a Viewlux (Perkin-Elmer). The ratio of the emissions at 665 nm and at […] was taken as the measure for the amount of phosphorylated substrate. The data were normalised (enzyme reaction without inhibitor=0% inhibition, all other assay components but no enzyme=100% inhibition).
# Chain of human full-length MKNK1 (Q9BUB5 other isoform, or with tags, fused parts or gaps T344D): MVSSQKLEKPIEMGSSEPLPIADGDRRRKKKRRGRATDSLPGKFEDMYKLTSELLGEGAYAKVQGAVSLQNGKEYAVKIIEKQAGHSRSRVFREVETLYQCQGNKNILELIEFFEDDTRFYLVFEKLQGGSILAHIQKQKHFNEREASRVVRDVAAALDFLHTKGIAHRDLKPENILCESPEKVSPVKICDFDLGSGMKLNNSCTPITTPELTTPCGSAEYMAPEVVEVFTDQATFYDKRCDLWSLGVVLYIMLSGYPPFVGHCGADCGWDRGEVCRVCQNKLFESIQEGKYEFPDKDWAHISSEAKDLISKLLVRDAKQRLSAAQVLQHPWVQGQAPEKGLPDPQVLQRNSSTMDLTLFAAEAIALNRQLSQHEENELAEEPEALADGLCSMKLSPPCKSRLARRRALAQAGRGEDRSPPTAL
row,IC50,SMILES
1,0.039 µM,"O=C(C1CCc2c(sc3ncnc(Nc4ccc5[nH]c(=O)sc5c4)c23)C1)N1CCN(CCCO)CC1 (racemic) [Example 57, (RS)-6-[(7-{[4-(3-hydroxypropyl)piperazin-1-yl]carbonyl}-5,6,7,8-tetrahydro[1]benzothieno[2,3-d]pyrimidin-4-yl)amino]-1,3-benzothiazol-2(3H)-one]"
2,0.062 µM,"CC(C)OC(=O)NCC1CCc2c(sc3ncnc(Nc4ccc5[nH]c(=O)sc5c4)c23)C1 (racemic) [Example 24, (RS)-Propan-2-yl ({4-[(2-oxo-2,3-dihydro-1,3-benzothiazol-6-yl)amino]-5,6,7,8-tetrahydro[1]benzothieno[2,3-d]pyrimidin-7-yl}methyl)carbamate]"
3,0.035 µM,"O=C(C1CCc2c(sc3ncnc(Nc4ccc5[nH]c(=O)sc5c4)c23)C1)N1CCCC1CO (racemic) [Example 46, 6-{[(7RS)-7-{[(2RS)-2-(hydroxymethyl)pyrrolidin-1-yl]carbonyl}-5,6,7,8-tetrahydro[1]benzothieno[2,3-d]pyrimidin-4-yl]amino}-1,3-benzothiazol-2(3H)-one]"
4,0.304 µM,"COCC1(OC)CCc2c(sc3ncnc(Nc4ccc5[nH]c(=O)sc5c4)c23)C1 (racemic) [Example 16, (RS)-6-{[7-Methoxy-7-(methoxymethyl)-5,6,7,8-tetrahydro[1]benzothieno[2,3-d]pyrimidin-4-yl]amino}-1,3-benzothiazol-2(3H)-one]"
5,0.065 µM,"O=C(C1CCc2c(sc3ncnc(Nc4ccc5[nH]c(=O)sc5c4)c23)C1)N1CCN(c2ccccn2)CC1 (racemic) [Example 40, (RS)-6-[(7-{[4-(pyridin-2-yl)piperazin-1-yl]carbonyl}-5,6,7,8-tetrahydro[1]benzothieno[2,3-d]pyrimidin-4-yl)amino]-1,3-benzothiazol-2(3H)-one]"
6,0.042 µM,"CN(C(=O)C1CCc2c(sc3ncnc(Nc4ccc5[nH]c(=O)sc5c4)c23)C1)C1CCOC(C)(C)C1 (racemic) [Example 80, (RS)-N-(2,2-dimethyltetrahydro-2H-pyran-4-yl)-N-methyl-4-[(2-oxo-2,3-dihydro-1,3-benzothiazol-6-yl)amino]-5,6,7,8-tetrahydro[1]benzothieno[2,3-d]pyrimidine-7-carboxamide]"
7,0.042 µM,"COc1cc2[nH]c(=O)sc2cc1Nc1ncnc2sc3c(c12)CCC(C(=O)O)C3 (stereo not shown) [Example 33, 4-[(5-Methoxy-2-oxo-2,3-dihydro-1,3-benzothiazol-6-yl)amino]-5,6,7,8-tetrahydro[1]benzothieno[2,3-d]pyrimidine-7-carboxylic acid]"
8,0.004 µM,"COc1cc2[nH]c(=O)sc2cc1Nc1ncnc2sc3c(c12)CCC(C(=O)N(C)C)C3 (racemic) [Example 85, (RS)-4-[(5-methoxy-2-oxo-2,3-dihydro-1,3-benzothiazol-6-yl)amino]-N,N-dimethyl-5,6,7,8-tetrahydro[1]benzothieno[2,3-d]pyrimidine-7-carboxamide]"
9,0.059 µM,"CC(C)NC(=O)NCC1CCc2c(sc3ncnc(Nc4ccc5[nH]c(=O)sc5c4)c23)C1 (racemic) [Example 22, (RS)-1-({4-[(2-Oxo-2,3-dihydro-1,3-benzothiazol-6-yl)amino]-5,6,7,8-tetrahydro[1]benzothieno[2,3-d]pyrimidin-7-yl}methyl)-3-propan-2-ylurea]"
10,0.0007 µM,"COCCN(CCOC)C(=O)C1CCc2c(sc3ncnc(Nc4cc5sc(=O)[nH]c5cc4OC)c23)C1 (racemic) [Example 93, (RS)—N,N-bis(2-methoxyethyl)-4-[(5-methoxy-2-oxo-2,3-dihydro-1,3-benzothiazol-6-yl)amino]-5,6,7,8-tetrahydro[1]benzothieno[2,3-d]pyrimidine-7-carboxamide]"
11,0.036 µM,"CCN1CCN(C(=O)C2CCc3c(sc4ncnc(Nc5ccc6[nH]c(=O)sc6c5)c34)C2)CC1 (racemic) [Example 60, (RS)-6-({7-[(4-ethylpiperazin-1-yl)carbonyl]-5,6,7,8-tetrahydro[1]benzothieno[2,3-d]pyrimidin-4-yl}amino)-1,3-benzothiazol-2(3H)-one]"
12,0.028 µM,"CC(C)N(CCO)C(=O)C1CCc2c(sc3ncnc(Nc4ccc5[nH]c(=O)sc5c4)c23)C1 (racemic) [Example 54, (RS)-N-(2-hydroxyethyl)-N-isopropyl-4-[(2-oxo-2,3-dihydro-1,3-benzothiazol-6-yl)amino]-5,6,7,8-tetrahydro[1]benzothieno[2,3-d]pyrimidine-7-carboxamide]"
13,0.015 µM,"CCOC(=O)C1CCc2c(sc3ncnc(Nc4cc5sc(=O)[nH]c5cc4OC)c23)C1 (racemic) [Example 30, (RS)-Ethyl 4-[(5-methoxy-2-oxo-2,3-dihydro-1,3-benzothiazol-6-yl)amino]-5,6,7,8-tetrahydro[1]benzothieno[2,3-d]pyrimidine-7-carboxylate]"
14,0.024 µM,"CCN(CCOC)C(=O)C1CCc2c(sc3ncnc(Nc4ccc5[nH]c(=O)sc5c4)c23)C1 (racemic) [Example 70, (RS)-N-ethyl-N-(2-methoxyethyl)-4-[(2-oxo-2,3-dihydro-1,3-benzothiazol-6-yl)amino]-5,6,7,8-tetrahydro[1]benzothieno[2,3-d]pyrimidine-7-carboxamide]"
15,0.047 µM,"CCOC(=O)C1CCc2c(sc3ncnc(Nc4ccc5[nH]c(=O)sc5c4)c23)C1 (racemic) [Example 1, (RS)-Ethyl 4-[(2-oxo-2,3-dihydro-1,3-benzothiazol-6-yl)amino]-5,6,7,8-tetrahydro[1]benzothieno[2,3-d]pyrimidine-7-carboxylate]"
16,0.047 µM,"COc1ccc(N(C)C(=O)C2CCc3c(sc4ncnc(Nc5ccc6[nH]c(=O)sc6c5)c34)C2)cc1 (racemic) [Example 42, (RS)-N-(4-methoxyphenyl)-N-methyl-4-[(2-oxo-2,3-dihydro-1,3-benzothiazol-6-yl)amino]-5,6,7,8-tetrahydro[1]benzothieno[2,3-d]pyrimidine-7-carboxamide]"
17,0.091 µM,"CNC(=O)C1CCc2c(sc3ncnc(Nc4ccc5[nH]c(=O)sc5c4)c23)C1 (racemic) [Example 11, (RS)—N-Methyl-4-[(2-oxo-2,3-dihydro-1,3-benzothiazol-6-yl)amino]-5,6,7,8-tetrahydro[1]benzothieno[2,3-d]pyrimidine-7-carboxamide]"
18,0.04 µM,"CCN(C)C(=O)C1CCc2c(sc3ncnc(Nc4ccc5[nH]c(=O)sc5c4)c23)C1 (racemic) [Example 59, (RS)-N-ethyl-N-methyl-4-[(2-oxo-2,3-dihydro-1,3-benzothiazol-6-yl)amino]-5,6,7,8-tetrahydro[1]benzothieno[2,3-d]pyrimidine-7-carboxamide]"
19,0.092 µM,"N[C@@H](CCO)C(=O)NCC1CCc2c(sc3ncnc(Nc4ccc5[nH]c(=O)sc5c4)c23)C1 (mixture of isomers) [Example 32, N-({4-[(2-Oxo-2,3-dihydro-1,3-benzothiazol-6-yl)amino]-5,6,7,8-tetrahydro[1]benzothieno[2,3-d]pyrimidin-7-(RS)-yl}methyl)-L-homoserinamide]"
20,0.0019 µM,"CCCCN(C)C(=O)C1CCc2c(sc3ncnc(Nc4cc5sc(=O)[nH]c5cc4OC)c23)C1 (racemic) [Example 89, (RS)—N-Butyl-4-[(5-methoxy-2-oxo-2,3-dihydro-1,3-benzothiazol-6-yl)amino]-N-methyl-5,6,7,8-tetrahydro[1]benzothieno[2,3-d]pyrimidine-7-carboxamide]"
21,0.047 µM,"CC(=O)N1CCN(C(=O)C2CCc3c(sc4ncnc(Nc5ccc6[nH]c(=O)sc6c5)c34)C2)CC1 (racemic) [Example 47, (RS)-6-({7-[(4-acetylpiperazin-1-yl)carbonyl]-5,6,7,8-tetrahydro[1]benzothieno[2,3-d]pyrimidin-4-yl}amino)-1,3-benzothiazol-2(3H)-one]"
22,0.081 µM,"O=C(C1CCc2c(sc3ncnc(Nc4ccc5[nH]c(=O)sc5c4)c23)C1)N1CCCC(F)C1 (racemic) [Example 65, 6-{[(7RS)-7-{[(3RS)-3-fluoropiperidin-1-yl]carbonyl}-5,6,7,8-tetrahydro[1]benzothieno[2,3-d]pyrimidin-4-yl]amino}-1,3-benzothiazol-2(3H)-one]"
